Results taken from US20220313710A1, “COMPOSITIONS AND METHODS USING NON-STEROIDAL ANTI-INFLAMMATORY DRUGS” (APPLIED BIOLOGICAL LABORATORIES, INC., priority 2019, published 2022).

Legend:
Type in all cases: cell-based
[1] = test system: 3D model of human airway epithelium; assay: Prostaglandin E2 ELISA on basal medium of bradykinin-stimulated 3D airway epithelia (MucilAir, MatTek)
Protocol: (§1) Various compositions were tested for their ability to protect a 3D model of human airway epithelium, constituted with primary human epithelial cells freshly isolated from nasal (MucilAir™ nasal pool), or tracheal or bronchial biopsies (MatTek PE-200-6.5). MucilAir™ and MatTek tissues are reconstituted human 3D tissue from airways and lung surgical pieces, fully differentiated, pseudostratified in vitro epithelium. MucilAir™_Pool is of nasal polyp origin and reconstituted with a mixture of cells isolated from 14 different donors. […] MatTek tissues are from tracheo-bronchial origin. The respiratory epithelium lining the nose and throat have very similar histology and architecture. These two different models reconfirm that models from different origin have similar responses to treatment in the case that one model may have more underlying inflammation, or other variability with respect to its retrieval than another.
(§2) Compositions were formulated with various concentrations of acetylsalicylic acid (ASA 0.6 mg/ml or ASA 6 mg/ml) in an aqueous saline solution vehicle such as 0.9% NaCl, 1.25 mM CaCl2, 10 mM HEPES. 10 μL of each formulation was added apically either to the MucilAir™ or MatTek tissues. Formulations were either added 10 minutes after activation of an inflammatory response in the media (FIGS. 1A-B, 3A, 4A), or 5 minutes before activation of an inflammatory response in the media (FIGS. 2A-B, 3B, 4B). Due to the rate of saliva production and concomitant dilution of acetylsalicylic acid on the mucosa, administration of each concentration in vitro correlates to a 10× concentration in product form. For example, 0.6 mg/ml ASA in the in vitro measurements corresponds administration of 6 mg/ml ASA in compositions, and 6 mg/ml […] corresponds to administration of 60 mg/ml in compositions.
(§3) Typically, the inflammatory cytokine bradykinin stimulates the prostaglandin pathway (through arachidonic acid) which then stimulates IL-8, another inflammatory cytokine. […] The inflammatory response of the prostaglandin pathway was stimulated through the addition of 10 μL of 25 mg/ml bradykinin protein was applied to the apical side of the MucilAir™ media.
(§4) Four hours following bradykinin application various measurements of the inflammatory response were measured. Epithelia were washed twice with MucilAir™ culture medium in order to clean the inoculum. Liquid aliquots from the basal medium were collected and stored at −80° C. for future study.
(§5) Prostaglandin E2 or IL-8 enzyme-linked immunosorbent assays (ELISA) were performed on the liquid aliquots from the basal medium to determine the amount of prostaglandin E2 produced as a result of inflammatory conditions initiated in each test condition. […] Although, acetylsalicylic acid is typically administered in doses greater than these measured, this dosage increased the inflammatory response.
MatTek (tracheal bronchial tissue) or MucilAir (nasal polyps) 3D inserts were placed in pre-warmed media corresponding to each cell system and incubated for 15 minutes at 37° C. L of saliva (negative control) or treatment was added to the apical surfaces. 5 minutes later, 10 μL of saliva or bradykinin was added to the apical side as well. Bradykinin was obtained from Tocris or New England Peptide (NEP) as indicated. At 4 hours, samples from the basal media were collected and frozen at −80° for PGE-2 ELISA measurements. At 24 hours, the inserts were moved to fresh basal media (corresponding to each cell system) and 200 L of media were added to each apical side for TEER analysis as described previously. The plate was then incubated for 5 minutes. Following TEER measurements, the apical solution was removed and 10 μL of each treatment (or saliva) was added to the apical surface. No bradykinin was added. TEER was measured again at 48 hours. Additionally, at 24 hours and 48 hours, basal media was collected and frozen for IL-8 and LDH analyses. […]

[2] = test system: 3D model of human airway epithelium; assay: IL-8 ELISA on basal medium of bradykinin-stimulated 3D airway epithelia (MucilAir, MatTek)
Protocol: as §1, §2, §3, §4, §5
MatTek (tracheal bronchial tissue) or MucilAir (nasal polyps) 3D inserts were placed in pre-warmed media corresponding to each cell system and incubated for 15 minutes at 37° C. L of saliva (negative control) or treatment was added to the apical surfaces. 5 minutes later, 10 μL of saliva or bradykinin was added to the apical side as well. Bradykinin was obtained from Tocris or New England Peptide (NEP) as indicated. At 4 hours, samples from the basal media were collected and frozen at −80° for PGE-2 ELISA measurements. […] TEER was measured again at 48 hours. […]

[3] = test system: 3D model of human airway epithelium; conditions: 48 h, 6 mg/ml
Protocol: as §1, with “another. […]” for “another.”
Tissue integrity was also monitored using transepithelial electrical resistance (“TEER”) measurements. […]
For TEER measurements, 200 μL of warm MucilAir™ media or MatTek TEER buffer was applied on the apical side of each insert. […] The resistance (Ω) is read on the Voltohmmeter and the TEER value was calculated with the following formula: TEER (Ω·cm^2)=(resistance value (Ω)−100 (Ω))×0.33 (cm^2). […]

[4] = dose above the therapeutic window
[5] = overall statement, concentration not given

CC(=O)Oc1ccccc1C(=O)O [ASA, acetylsalicylic acid]
prostaglandin E2 production (inflammatory response) versus positive control ([1]; 0.6 mg/ml ASA added 5 minutes before bradykinin (FIGS. 2A, 2B)): did inhibit inflammation in a statistically significant manner
prostaglandin E2 production (inflammatory response) versus positive control ([1]; 0.6 mg/ml ASA added 10 minutes after bradykinin, measured 4 hours after bradykinin (FIGS. 1A, 1B)): resulted in an anti-inflammatory response
prostaglandin E2 production (inflammatory response) versus positive control ([1]; 6 mg/ml ASA added 5 minutes before bradykinin (FIG. 2A)): no statistical significance with respect to positive control
prostaglandin E2 production (inflammatory response) versus positive control ([1]; 6 mg/ml ASA added 10 minutes after bradykinin, measured 4 hours after bradykinin (FIG. 1A)): increased the inflammatory response in a statistically significant matter
PGE2 relative to maximum bradykinin-induced level [1, 4]: increased
PGE-2 levels (bradykinin induced) [1, 5]: significantly decreasing
IL-8 concentration ([2]; 0.6 mg/ml ASA, therapeutic and prophylactic modalities (FIGS. 4A, 4B)): A similar result was not observed
IL-8 concentration ([2]; 6 mg/ml ASA, prophylactic modality (added before bradykinin, FIG. 4B)): significantly greater
IL-8 concentration ([2]; 6 mg/ml ASA, therapeutic modality (added after bradykinin, FIG. 4A)): significantly greater
IL-8 relative to maximum bradykinin-induced level [2, 4]: increased
levels of IL-8 protein [2, 5]: did not appreciably decrease
TEER (barrier function of the epithelia) [3]: < 100 Ω·cm^2
